biological target: T1, Axl (Homo sapiens, UniProt P30530); assay: Axl NanoBRET intracellular kinase assay (intracellular binding, Cell Binding); set-up: host or cells: HEK-293; details: HEK-293 cells transfected with Axl-NanoLuc fusion vector; 0.35 μM K-5 NanoBRET tracer
T1 sequence (P30530 26-894): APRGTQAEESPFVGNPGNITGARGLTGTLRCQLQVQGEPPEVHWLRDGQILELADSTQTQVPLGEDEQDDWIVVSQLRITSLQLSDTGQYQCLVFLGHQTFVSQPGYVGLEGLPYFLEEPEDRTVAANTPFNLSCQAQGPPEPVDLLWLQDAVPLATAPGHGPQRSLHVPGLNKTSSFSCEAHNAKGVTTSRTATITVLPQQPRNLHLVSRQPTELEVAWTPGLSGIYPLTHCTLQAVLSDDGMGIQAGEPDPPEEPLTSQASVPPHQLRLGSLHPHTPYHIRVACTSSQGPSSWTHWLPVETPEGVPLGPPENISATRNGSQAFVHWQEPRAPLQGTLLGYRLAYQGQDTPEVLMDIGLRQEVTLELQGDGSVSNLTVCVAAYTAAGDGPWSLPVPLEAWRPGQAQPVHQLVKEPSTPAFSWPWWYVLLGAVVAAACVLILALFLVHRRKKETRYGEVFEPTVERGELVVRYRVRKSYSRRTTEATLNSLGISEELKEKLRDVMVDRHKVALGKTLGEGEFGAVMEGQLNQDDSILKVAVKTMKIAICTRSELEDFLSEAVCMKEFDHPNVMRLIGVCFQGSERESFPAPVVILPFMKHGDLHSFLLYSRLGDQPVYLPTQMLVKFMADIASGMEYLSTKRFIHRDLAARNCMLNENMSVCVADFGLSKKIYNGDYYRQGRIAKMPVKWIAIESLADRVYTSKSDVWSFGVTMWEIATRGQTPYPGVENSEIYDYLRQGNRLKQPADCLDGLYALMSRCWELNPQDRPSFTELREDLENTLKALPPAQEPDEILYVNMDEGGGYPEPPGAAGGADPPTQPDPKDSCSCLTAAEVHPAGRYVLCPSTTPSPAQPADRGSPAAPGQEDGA
How it was run: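 HEK-293 cells transiently transfected with Axl-NanoLuc fusion the day before were pre-incubated with compound for 1 h at 37 °C, 5% CO2 (0.5% DMSO), then with 0.35 μM K-5 NanoBRET tracer for 2 h. Tracer displacement was read as the 610/450 nm BRET ratio; IC50 from 4-parameter fit.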

`NC(=O)c1ccc(-c2n[nH]c3ncc(-c4ccc5c(c4)CC[C@@H](N4CCCC4)CC5)cc23)cc1Cl` [Example 84, (S)-2-Chloro-4-(5-(7-(pyrrolidin-1-yl)-6,7,8,9-tetrahydro-5H-benzo[7]annulen-2-yl)-1H-pyrazolo[3,4-b]pyridin-3-yl)benzamide] and `NS(=O)(=O)c1ccc(-c2n[nH]c3ncc(-c4ccc5c(c4)CC[C@@H](N4CCCC4)CC5)cc23)cc1Cl` [Example 91, (S)-2-Chloro-4-(5-(7-(pyrrolidin-1-yl)-6,7,8,9-tetrahydro-5H-benzo[7]annulen-2-yl)-1H-pyrazolo[3,4-b]pyridin-3-yl)benzenesulfonamide] cannot be ordered by IC50: < 100 nM for the first, < 100 nM for the second.

First: O=C(c1ccc(-c2n[nH]c3ncc(-c4ccc5c(c4)CC[C@@H](N4CCCC4)CC5)cc23)cc1Cl)N1CCC(O)CC1 [Example 85, (S)-(2-Chloro-4-(5-(7-(pyrrolidin-1-yl)-6,7,8,9-tetrahydro-5H-benzo[7]annulen-2-yl)-1H-pyrazolo[3,4-b]pyridin-3-yl)phenyl)(4-hydroxypiperidin-1-yl)methanone]
Second: NS(=O)(=O)c1ccc(-c2n[nH]c3ncc(-c4ccc5c(c4)CCN(C4CCCC4)CC5)cc23)cc1Cl [Example 92, 2-Chloro-4-(5-(3-cyclopentyl-2,3,4,5-tetrahydro-1H-benzo[d]azepin-7-yl)-1H-pyrazolo[3,4-b]pyridin-3-yl)benzenesulfonamide]
The IC50 of the first is lower: < 100 nM for the first, 100 to 1000 nM for the second. The first is the more potent here.

First: COc1cc(-c2n[nH]c3ncc(-c4ccc5c(c4)CCC(C)(N4CCC[C@H]4C)CC5)cc23)ccc1S(N)(=O)=O (stereo partly drawn) [Example 87, 2-Methoxy-4-(5-(7-methyl-7-((R)-2-methylpyrrolidin-1-yl)-6,7,8,9-tetrahydro-5H-benzo[7]annulen-2-yl)-1H-pyrazolo[3,4-b]pyridin-3-yl)benzenesulfonamide]
Second: C[C@@H]1CCCN1C1(C)CCc2ccc(-c3cnc4[nH]nc(-c5ccc(S(N)(=O)=O)c(Cl)c5)c4c3)cc2CC1 (stereo partly drawn) [Example 93, 2-Chloro-4-(5-(7-methyl-7-((R)-2-methylpyrrolidin-1-yl)-6,7,8,9-tetrahydro-5H-benzo[7]annulen-2-yl)-1H-pyrazolo[3,4-b]pyridin-3-yl)benzenesulfonamide]
The IC50 of the first is higher: 100 to 1000 nM for the first, < 100 nM for the second. The second is the more potent here.

`C[C@@H]1CCCN1C1(C)CCc2ccc(-c3cnc4[nH]nc(-c5ccc(C(=O)NC6CCOCC6)cc5)c4c3)cc2CC1` (stereo partly drawn) [Example 88, 4-(5-(7-Methyl-7-((R)-2-methylpyrrolidin-1-yl)-6,7,8,9-tetrahydro-5H-benzo[7]annulen-2-yl)-1H-pyrazolo[3,4-b]pyridin-3-yl)-N-(tetrahydro-2H-pyran-4-yl)benzamide] and `COC1CCN(C(=O)c2ccc(-c3n[nH]c4ncc(-c5ccc6c(c5)CCC(C)(N5CCC[C@H]5C)CC6)cc34)cc2)CC1` (stereo partly drawn) [Example 89, (4-Methoxypiperidin-1-yl)(4-(5-(7-methyl-7-((R)-2-methylpyrrolidin-1-yl)-6,7,8,9-tetrahydro-5H-benzo[7]annulen-2-yl)-1H-pyrazolo[3,4-b]pyridin-3-yl)phenyl)methanone] cannot be ordered by IC50: < 100 nM for the first, < 100 nM for the second.

With `Cc1cc2c(cc1-c1cnc3[nH]nc(-c4ccc(C(C)(C)O)c(Cl)c4)c3c1)CCC(N1CCC[C@H]1C)CC2` (stereo partly drawn) [Example 90, 2-[2-Chloro-4-(5-{3-methyl-7-[(2R)-2-methylpyrrolidin-1-yl]-6,7,8,9-tetrahydro-5H-benzo[7]annulen-2-yl}-1H-pyrazolo[3,4-b]pyridin-3-yl)phenyl]propan-2-ol] the IC50 was 100 to 1000 nM.

Reference: patent US20240246967A1, “AXL COMPOUNDS” (ARCUS BIOSCIENCES, INC., priority 2021, published 2024)
